Assay results published in US20250213572A1, “TYK2 INHIBITORS AND USES THEREOF” (Takeda Pharmaceutical Company Limited, priority 2022, published 2025).
In brackets after ≈: the same amount, converted by molar mass. Entries after “also recorded” stand apart in the source; their conditions may differ. Like-named read-outs stand apart in the source and are kept apart here.

Assays:
[1] = target: PXR (Homo sapiens, UniProt O75469); assay: PXR activation; format: cell-based; details: at 30 μM
[2] = system: hepatocytes; assay: Hepatocyte predicted clearance (Hep Clpred), dog; format: in vitro ADME; details: in vitro
[3] = Nonclinical oral absorption across species (summary); format: in vivo
[4] = Three placebo-controlled Phase I studies, pooled summary; details: across the 3 Phase I studies
[5] = In vivo pharmacokinetics, dog; details: plasma
[6] = Study 101: safety and tolerability of single and multiple ascending doses in healthy subjects
[7] = system: TYK2-dependent interferon gamma (IFNγ); assay: Ex-vivo whole blood IL-12/IL-18 stimulated IFNγ production (pharmacodynamics); format: in vivo, human; details: after oral dosing
Experimental: Pharmacodynamic Results: The PD effect of treatment within this study was assessed using an ex-vivo immune-assay measuring the amount of TYK2-dependent interferon gamma (IFNγ) produced by whole blood samples that were stimulated with the cytokines IL-12 and IL-18 at baseline (predose) and following treatment.

[8] = target: CYP450 2D6 (Homo sapiens, UniProt P10635); assay: CYP450 inhibition, 2D6; format: in vitro ADME
Sequence of CYP450 2D6 (P10635 whole entry): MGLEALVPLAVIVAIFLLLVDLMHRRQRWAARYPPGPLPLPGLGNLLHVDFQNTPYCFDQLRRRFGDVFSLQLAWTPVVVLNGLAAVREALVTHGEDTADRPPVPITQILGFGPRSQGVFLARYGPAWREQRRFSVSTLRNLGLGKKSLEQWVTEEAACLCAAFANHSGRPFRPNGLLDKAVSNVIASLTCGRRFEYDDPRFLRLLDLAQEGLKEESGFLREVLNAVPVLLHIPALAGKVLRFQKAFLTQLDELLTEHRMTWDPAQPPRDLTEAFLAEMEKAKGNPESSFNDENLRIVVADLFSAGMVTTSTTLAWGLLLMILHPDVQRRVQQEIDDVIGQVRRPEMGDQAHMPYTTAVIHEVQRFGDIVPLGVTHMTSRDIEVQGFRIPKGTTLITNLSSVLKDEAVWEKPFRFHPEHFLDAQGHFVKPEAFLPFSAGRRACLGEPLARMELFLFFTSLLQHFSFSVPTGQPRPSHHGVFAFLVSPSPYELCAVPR

[9] = target: CYP450 2C19 (Homo sapiens, UniProt P33261); assay: CYP450 inhibition, 2C19; format: in vitro ADME
Sequence of CYP450 2C19 (P33261 whole entry): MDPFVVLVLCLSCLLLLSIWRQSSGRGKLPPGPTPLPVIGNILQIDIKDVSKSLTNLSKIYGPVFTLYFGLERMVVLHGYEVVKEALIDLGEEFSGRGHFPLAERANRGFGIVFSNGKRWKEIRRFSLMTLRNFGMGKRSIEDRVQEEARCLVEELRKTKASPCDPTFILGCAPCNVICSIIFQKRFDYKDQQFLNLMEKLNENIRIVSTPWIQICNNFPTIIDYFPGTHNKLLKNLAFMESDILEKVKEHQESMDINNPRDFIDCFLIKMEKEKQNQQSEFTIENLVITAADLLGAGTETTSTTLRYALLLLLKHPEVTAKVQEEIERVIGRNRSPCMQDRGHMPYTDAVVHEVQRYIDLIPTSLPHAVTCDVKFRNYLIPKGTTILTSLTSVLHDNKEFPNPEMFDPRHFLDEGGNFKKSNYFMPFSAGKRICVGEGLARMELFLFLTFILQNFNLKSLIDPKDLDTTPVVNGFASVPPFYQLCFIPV

[10] = system: hepatocytes; assay: Hepatocyte predicted clearance (Hep Clpred), cyno; format: in vitro ADME; details: in vitro
[11] = Pharmacokinetics in healthy volunteers (PO; QD), Study 101 and Study 104 (FIG. 11, FIG. 12); format: in vivo, human
[12] = clinical; details: human, plasma, oral
[13] = system: adjuvant-induced arthritis; assay: Rat adjuvant-induced arthritis (AIA) efficacy model; details: administered daily for 20 days
Experimental: On day 0, the adjuvant was injected. On day 9, baseline ankle diameters were measured. On days 12-20, daily ankle diameter measurements were taken. On day 20, a final necroscopy and paw weight measure were taken.

[14] = Plasma protein binding (PPB Fu), mouse; format: in vitro ADME; details: in vitro
[15] = target: hERG (Homo sapiens, UniProt Q12809); assay: hERG (Patch Clamp); format: cell-based
Sequence of hERG (Q12809 whole entry): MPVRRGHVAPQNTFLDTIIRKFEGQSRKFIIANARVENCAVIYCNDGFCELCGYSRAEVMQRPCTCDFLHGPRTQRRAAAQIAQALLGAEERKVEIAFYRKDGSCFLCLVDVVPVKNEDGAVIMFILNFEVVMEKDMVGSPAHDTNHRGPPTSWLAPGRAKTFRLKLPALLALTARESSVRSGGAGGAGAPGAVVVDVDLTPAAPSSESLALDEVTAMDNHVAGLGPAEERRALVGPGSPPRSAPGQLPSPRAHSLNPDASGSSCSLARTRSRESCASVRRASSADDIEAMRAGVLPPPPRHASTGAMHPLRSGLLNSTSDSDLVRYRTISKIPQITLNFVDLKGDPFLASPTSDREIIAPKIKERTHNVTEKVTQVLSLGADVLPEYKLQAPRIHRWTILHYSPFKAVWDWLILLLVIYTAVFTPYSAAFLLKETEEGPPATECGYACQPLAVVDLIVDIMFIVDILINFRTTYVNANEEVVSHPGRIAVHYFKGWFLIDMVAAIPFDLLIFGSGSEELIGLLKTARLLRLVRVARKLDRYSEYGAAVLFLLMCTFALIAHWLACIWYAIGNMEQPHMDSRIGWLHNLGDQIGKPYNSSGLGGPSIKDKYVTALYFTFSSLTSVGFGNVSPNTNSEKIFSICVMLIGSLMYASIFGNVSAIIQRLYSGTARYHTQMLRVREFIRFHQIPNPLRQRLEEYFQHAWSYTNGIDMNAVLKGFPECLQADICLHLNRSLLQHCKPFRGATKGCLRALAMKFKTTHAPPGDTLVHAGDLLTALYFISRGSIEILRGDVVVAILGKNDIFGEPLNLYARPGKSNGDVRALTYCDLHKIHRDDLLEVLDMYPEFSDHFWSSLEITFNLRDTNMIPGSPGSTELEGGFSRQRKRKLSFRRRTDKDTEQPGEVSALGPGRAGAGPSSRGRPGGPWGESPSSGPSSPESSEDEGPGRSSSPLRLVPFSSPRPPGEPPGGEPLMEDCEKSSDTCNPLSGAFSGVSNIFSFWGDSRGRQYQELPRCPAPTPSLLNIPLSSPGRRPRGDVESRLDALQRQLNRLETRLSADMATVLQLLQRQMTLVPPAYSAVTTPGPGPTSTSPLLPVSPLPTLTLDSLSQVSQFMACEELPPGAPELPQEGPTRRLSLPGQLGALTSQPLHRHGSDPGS

[16] = system: TYK2-dependent IL12-induced INFγ production; assay: TYK2-dependent IL12-induced INFγ production in rat; format: in vivo; details: not shown
[17] = Kinetic solubility; format: physicochemical; details: kinetic from dmso stock
[18] = human, in vivo
[19] = Phase 2b study in plaque psoriasis (Example 4): safety
[20] = FaSSIF/FeSSIF solubility; format: physicochemical
[21] = target: CYP450 1A2 (Homo sapiens, UniProt P05177); assay: CYP450 inhibition, 1A2; format: in vitro ADME
Sequence of CYP450 1A2 (P05177 whole entry): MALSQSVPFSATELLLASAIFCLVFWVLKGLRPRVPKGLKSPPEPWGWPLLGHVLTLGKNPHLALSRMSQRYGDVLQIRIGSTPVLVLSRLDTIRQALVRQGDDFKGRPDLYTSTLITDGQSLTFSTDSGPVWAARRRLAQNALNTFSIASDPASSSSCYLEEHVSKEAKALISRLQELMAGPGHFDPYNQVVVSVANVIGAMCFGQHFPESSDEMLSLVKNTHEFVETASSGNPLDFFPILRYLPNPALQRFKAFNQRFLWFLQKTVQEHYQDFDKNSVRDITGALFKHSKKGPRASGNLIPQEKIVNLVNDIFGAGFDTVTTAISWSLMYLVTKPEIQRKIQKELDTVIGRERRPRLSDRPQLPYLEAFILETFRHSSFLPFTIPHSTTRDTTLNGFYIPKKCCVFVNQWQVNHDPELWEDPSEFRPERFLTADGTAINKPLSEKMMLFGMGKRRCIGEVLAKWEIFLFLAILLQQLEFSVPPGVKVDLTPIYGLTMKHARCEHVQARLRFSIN

Sequence of PXR (O75469 whole entry): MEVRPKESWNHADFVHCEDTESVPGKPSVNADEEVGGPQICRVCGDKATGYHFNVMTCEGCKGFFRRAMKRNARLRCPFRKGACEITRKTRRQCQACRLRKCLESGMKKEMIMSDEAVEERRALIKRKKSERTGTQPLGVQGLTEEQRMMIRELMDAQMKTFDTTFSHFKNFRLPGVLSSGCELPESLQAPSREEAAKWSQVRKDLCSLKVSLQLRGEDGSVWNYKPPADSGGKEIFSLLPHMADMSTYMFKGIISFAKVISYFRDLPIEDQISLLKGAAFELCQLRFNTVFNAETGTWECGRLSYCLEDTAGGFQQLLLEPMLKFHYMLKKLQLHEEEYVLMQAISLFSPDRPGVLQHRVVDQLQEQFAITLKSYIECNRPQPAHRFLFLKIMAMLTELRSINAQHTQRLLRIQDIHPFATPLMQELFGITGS

In the case of `CNc1cc(Nc2cccn(-c3ccccn3)c2=O)nc2c(C(=O)N[C@@H]3CC[C@H]3OC)cnn12` [Compound 1, N-((1R,2R)-2-methoxycyclobutyl)-7-(methylamino)-5-((2-oxo-2H-[1,2′-bipyridin]-3-yl)amino)pyrazolo[1,5-a]pyrimidine-3-carboxamide], the PXR activation [1] is reported as 26 % of rifampicin control, the “Hep Clpred” value [2] is reported as 15 mL/min/kg and the absorption [3] is reported as “good absorption across species”. The “serious adverse events (SAEs) or deaths” value [4] was “No serious adverse events (SAEs) or deaths were observed”, the half-life ([5]; dog) was 5.3 h and the clearance ([5]; 1 mg/kg, Dog, 1 mpk IV dose, read-out: Clp, obs) was 14 mL/min/kg. The Vd ([5]; 1 mg/kg, Dog, 1 mpk IV dose, read-out: Vss) was 4 L/kg, the Tmax ([5]; 10 mg/kg, Dog, PO 10 mpk) was 0.83 h and the bioavailability ([5]; 10 mg/kg, Dog, PO 10 mpk) was 47%. The “deaths, serious or severe AEs, AEs leading to discontinuation from the study” value ([6]; multiple-dose cohorts) was “no deaths, serious or severe AEs, or AEs leading to discontinuation from the study”, the “deaths, serious or severe AEs, AEs leading to discontinuation” value ([6]; single-dose cohorts) was “no deaths, serious or severe AEs, or AEs leading to discontinuation” and the “IFNγ production in cytokine-stimulated ex vivo whole blood” value [7] was “greater reduction in IFNγ; also recorded: dose-dependent inhibition of IFNy; also recorded: rapid inhibition of interferon gamma (IFNγ) production”. The IC50 [8] was over 30 µM, the IC50 [9] was over 8 µM and the “Hep Clpred” value [10] was 11 mL/min/kg. For the same molecule, the “dose proportionality of Cmax and AUC0-24” value ([11]; 5-75 mg) was “increased in an approximately dose-proportional manner”, the half-life ([11]; human, plasma, po, across doses, read-out: Oral T1/2) was 16.5 to 30.7 h and the Tmax ([11]; human, plasma, day 1 and day 14, PO QD, read-out: median Tmax of peak mean plasma concentrations) was 4 to 6 h. The Tmax [12] was 3 to 6 h, the half-life [12] was 17 to 37 h and the “disease activity in rat AIA model” value [13] was “suppressed disease activity in a dose-related manner”. The fraction unbound [14] was 0.08, the IC50 [15] was over 30 µM and the “TYK2-dependent IL12-induced INFγ production” value [16] was “Concentration-dependent suppression”. For the same molecule, the solubility kinetic [17] was 32 µM (≈ 14.7 µg/mL), the AUC % extrapolated [18] was 9.9-30.9% and the “fraction of the dose excreted in urine (FE %)” value [18] was 0.37-1.89 % of dose. For the same molecule, the “kind of adverse event leading to drug discontinuation” value (shortened to “kind of adverse event leading”) ([19]; 2 mg) was “Lymphocyte count decreased (2 mg)”, the AEs ([19]; 2 mg QD) was 31 (62) Number of patients (percent) and the “AEs leading to discontinuation” value ([19]; 2 mg QD) was 1 (2) Number of patients (percent). For the same molecule, the “ALT elevation, CTCAE Grade ≥3” value ([19]; 2 mg QD) was 0 Number of patients (percent), the “AST elevation, CTCAE Grade ≥3” value ([19]; 2 mg QD) was 0 Number of patients (percent) and the Acne ([19]; 2 mg QD) was 0 Number of patients (percent). For the same molecule, the Acneiform dermatitis ([19]; 2 mg QD) was 0 Number of patients (percent), the “Anemia, CTCAE Grade ≥3” value ([19]; 2 mg QD) was 0 Number of patients (percent) and the COVID-19 ([19]; 2 mg QD) was 6 (12) Number of patients (percent). The “CPK elevation, CTCAE Grade ≥3” value ([19]; 2 mg QD) was 0 Number of patients (percent), the “Cholesterol elevation, Wk 12, CTCAE Grade ≥3” value (from here on “Cholesterol elevation”) ([19]; 2 mg QD) was 0 Number of patients (percent) and the “Creatinine elevation, CTCAE Grade ≥3” value ([19]; 2 mg QD) was 0 Number of patients (percent). The Deaths ([19]; 2 mg QD) was 0 Number of patients (percent), the Diarrhea ([19]; 2 mg QD) was 3 (6) Number of patients (percent) and the “Lymphopenia, CTCAE Grade ≥3” value ([19]; 2 mg QD) was 1 (2) Number of patients (percent). The “Serious AEs” value ([19]; 2 mg QD) was 0 Number of patients (percent), the “Thrombocytopenia, CTCAE Grade ≥3” value ([19]; 2 mg QD) was 0 Number of patients (percent) and the “Triglyceride elevation, Wk 12, CTCAE Grade ≥3” value ([19]; 2 mg QD) was 1 (2) Number of patients (percent). For the same molecule, the “Worsening of proteinuria, CTCAE Grade ≥3” value ([19]; 2 mg QD) was 0 Number of patients (percent), the “kind of adverse event leading” value ([19]; 5 mg) was “Tachycardia and syncope (5 mg)” and the AEs ([19]; 5 mg QD) was 28 (54) Number of patients (percent). For the same molecule, the “AEs leading to discontinuation” value ([19]; 5 mg QD) was 1 (2) Number of patients (percent), the “ALT elevation, CTCAE Grade ≥3” value ([19]; 5 mg QD) was 0 Number of patients (percent) and the “AST elevation, CTCAE Grade ≥3” value ([19]; 5 mg QD) was 0 Number of patients (percent). For the same molecule, the Acne ([19]; 5 mg QD) was 1 (2) Number of patients (percent), the Acneiform dermatitis ([19]; 5 mg QD) was 1 (2) Number of patients (percent) and the “Anemia, CTCAE Grade ≥3” value ([19]; 5 mg QD) was 0 Number of patients (percent). For the same molecule, the COVID-19 ([19]; 5 mg QD) was 4 (8) Number of patients (percent), the “CPK elevation, CTCAE Grade ≥3” value ([19]; 5 mg QD) was 0 Number of patients (percent) and the “Cholesterol elevation” value ([19]; 5 mg QD) was 0 Number of patients (percent). The “Creatinine elevation, CTCAE Grade ≥3” value ([19]; 5 mg QD) was 0 Number of patients (percent), the Deaths ([19]; 5 mg QD) was 0 Number of patients (percent) and the Diarrhea ([19]; 5 mg QD) was 1 (2) Number of patients (percent). For the same molecule, the “Lymphopenia, CTCAE Grade ≥3” value ([19]; 5 mg QD) was 0 Number of patients (percent), the “Serious AEs” value ([19]; 5 mg QD) was 0 Number of patients (percent) and the “Thrombocytopenia, CTCAE Grade ≥3” value ([19]; 5 mg QD) was 0 Number of patients (percent). The “Triglyceride elevation, Wk 12, CTCAE Grade ≥3” value ([19]; 5 mg QD) was 0 Number of patients (percent), the “Worsening of proteinuria, CTCAE Grade ≥3” value ([19]; 5 mg QD) was 0 Number of patients (percent) and the “kind of adverse event leading” value ([19]; 15 mg) was “Pericardial effusion and pleural effusion (15 mg)”. The AEs ([19]; 15 mg QD) was 28 (53) Number of patients (percent), the “AEs leading to discontinuation” value ([19]; 15 mg QD) was 1 (2) Number of patients (percent) and the “ALT elevation, CTCAE Grade ≥3” value ([19]; 15 mg QD) was 0 Number of patients (percent). For the same molecule, the “AST elevation, CTCAE Grade ≥3” value ([19]; 15 mg QD) was 0 Number of patients (percent), the Acne ([19]; 15 mg QD) was 3 (6) Number of patients (percent) and the Acneiform dermatitis ([19]; 15 mg QD) was 1 (2) Number of patients (percent). The “Anemia, CTCAE Grade ≥3” value ([19]; 15 mg QD) was 0 Number of patients (percent), the COVID-19 ([19]; 15 mg QD) was 6 (11) Number of patients (percent) and the “CPK elevation, CTCAE Grade ≥3” value ([19]; 15 mg QD) was 1 (2) Number of patients (percent). The “Cholesterol elevation” value ([19]; 15 mg QD) was 0 Number of patients (percent), the “Creatinine elevation, CTCAE Grade ≥3” value ([19]; 15 mg QD) was 0 Number of patients (percent) and the Deaths ([19]; 15 mg QD) was 0 Number of patients (percent). For the same molecule, the Diarrhea ([19]; 15 mg QD) was 1 (2) Number of patients (percent), the “Lymphopenia, CTCAE Grade ≥3” value ([19]; 15 mg QD) was 0 Number of patients (percent) and the “Serious AEs” value ([19]; 15 mg QD) was 1 (2) Number of patients (percent). The “Thrombocytopenia, CTCAE Grade ≥3” value ([19]; 15 mg QD) was 0 Number of patients (percent), the “Triglyceride elevation, Wk 12, CTCAE Grade ≥3” value ([19]; 15 mg QD) was 1 (2) Number of patients (percent) and the “Worsening of proteinuria, CTCAE Grade ≥3” value ([19]; 15 mg QD) was 0 Number of patients (percent). For the same molecule, the “kind of adverse event leading” value ([19]; 30 mg) was “CPK increased (30 mg); also recorded: One additional subject (30 mg) permanently discontinued study drug due to an AE of hypertensive urgency, but remained in study”, the AEs ([19]; 30 mg QD) was 31 (60) Number of patients (percent) and the “AEs leading to discontinuation” value ([19]; 30 mg QD) was 2 (4) Number of patients (percent). The “ALT elevation, CTCAE Grade ≥3” value ([19]; 30 mg QD) was 0 Number of patients (percent), the “AST elevation, CTCAE Grade ≥3” value ([19]; 30 mg QD) was 0 Number of patients (percent) and the Acne ([19]; 30 mg QD) was 2 (4) Number of patients (percent). The Acneiform dermatitis ([19]; 30 mg QD) was 3 (6) Number of patients (percent), the “Anemia, CTCAE Grade ≥3” value ([19]; 30 mg QD) was 0 Number of patients (percent) and the COVID-19 ([19]; 30 mg QD) was 7 (14) Number of patients (percent). For the same molecule, the “CPK elevation, CTCAE Grade ≥3” value ([19]; 30 mg QD) was 1 (2) Number of patients (percent), the “Cholesterol elevation” value ([19]; 30 mg QD) was 0 Number of patients (percent) and the “Creatinine elevation, CTCAE Grade ≥3” value ([19]; 30 mg QD) was 0 Number of patients (percent). For the same molecule, the Deaths ([19]; 30 mg QD) was 0 Number of patients (percent), the Diarrhea ([19]; 30 mg QD) was 0 Number of patients (percent) and the “Lymphopenia, CTCAE Grade ≥3” value ([19]; 30 mg QD) was 0 Number of patients (percent). For the same molecule, the “Serious AEs” value ([19]; 30 mg QD) was 0 Number of patients (percent), the “Thrombocytopenia, CTCAE Grade ≥3” value ([19]; 30 mg QD) was 0 Number of patients (percent) and the “Triglyceride elevation, Wk 12, CTCAE Grade ≥3” value ([19]; 30 mg QD) was 1 (2) Number of patients (percent). For the same molecule, the “Worsening of proteinuria, CTCAE Grade ≥3” value ([19]; 30 mg QD) was 0 Number of patients (percent), the CPK ([19]; FIG. 17E) was “shows some variability at 15 mg and 30 mg with large error bars” and the Triglyceride elevation ([19]; FIG. 19B) was “minimal”. The “hematological parameters, mean lab values and changes from baseline” value ([19]; FIGS. 17A-17E, weeks 0-16) was “do not reveal adverse trends in cell counts”, the “hepatic and renal parameters, mean lab values and changes from baseline” value ([19]; FIGS. 18A-18E) was “do not reveal adverse trends for liver enzymes, creatinine or eGFR” and the “lipid parameters, mean lab values and changes from baseline” value ([19]; FIGS. 19A-19E) was “do not reveal adverse trends for cholesterol, HDL, or LDL”. It also gave a solubility ([20]; FaSSIF, read-out: FaSSIF solubility) of 13 µg/mL (≈ 28.2 µM), a solubility ([20]; FeSSIF, read-out: FeSSIF solubility) of 70 µg/mL (≈ 152 µM) and an IC50 [21] of over 30 µM.
